Reference: BigSolDB 2.1

COc1ccc(-n2nc(C(N)=O)c3c2C(=O)N(c2ccc(N4CCCCC4=O)cc2)CC3)cc1
solubility (mole fraction)
Conditions	288.15 K	293.15 K	298.15 K	303.15 K	308.15 K	313.15 K	318.15 K	323.15 K	328.15 K
in acetone	0.00024	0.000276	0.00032	0.000377	0.000436	0.00051	0.000584	0.000669	0.000754
in ethanol	0.000112	0.000144	0.00018	0.00022	0.000268	0.00033	0.000402	0.000474	0.000572
in isopropanol	6.12e-05	7.67e-05	9.95e-05	0.000133	0.000167	0.000214	0.000271	0.00033	0.000404
in methanol	0.000327	0.000416	0.00053	0.000669	0.000842	0.00104	0.00128	0.00156	0.00188
in water	9.68e-06	1.13e-05	1.39e-05	1.67e-05	1.95e-05	2.31e-05	2.74e-05	3.19e-05	3.72e-05
